Read-outs that look alike come from different tables or passages of the source. Numbered stars: 1 amine (or outer) side, 2 acyl side, 3 side chain; on linkers, the order of the positions; unused ones are H or OH. Square brackets hold non-standard residues; d marks the D form. Ends that are not written are not given here. Peptide text beside a SMILES is read from it. X3 = O=C([C@H](C[C@@H]1[C@H](F)C[C@H](F)C[C@@H]1F)N[*:1])[*:2]; X2 = O=C([C@H](C[C@@H]1C[C@H](F)C[C@H](F)C1)N[*:1])[*:2]; X1 = O=C([C@H](C[C@H]1CC[C@@H](F)CC1)N[*:1])[*:2]; Phe(F5) = N[C@@H](Cc1c(F)c(F)c(F)c(F)c1F)C(=O)O; Phe(4-F) = N[C@@H](Cc1ccc(F)cc1)C(=O)O
How the values were obtained:
FPR2 [1] = molecular target: T1, FPR2 (Homo sapiens, UniProt P25090); assay: Competition binding against K(5/6-FAM)-WKYMVm, flow cytometry; design: FLAG (N); expressed in transfected cells; conditions: for IC50: binding affinity (order of magnitude), order of magnitude
T1 sequence (P25090 1-351): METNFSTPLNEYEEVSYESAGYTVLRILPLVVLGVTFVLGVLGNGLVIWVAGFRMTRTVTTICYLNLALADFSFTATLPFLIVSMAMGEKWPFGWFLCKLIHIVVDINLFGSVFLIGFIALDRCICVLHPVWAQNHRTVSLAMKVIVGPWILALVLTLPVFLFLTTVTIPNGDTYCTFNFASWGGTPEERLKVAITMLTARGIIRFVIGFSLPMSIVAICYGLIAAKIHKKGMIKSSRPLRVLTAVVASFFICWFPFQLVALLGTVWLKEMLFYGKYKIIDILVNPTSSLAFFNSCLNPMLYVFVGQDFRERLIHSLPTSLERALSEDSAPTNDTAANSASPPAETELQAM
Experimental: Subsequently, mean fluorescence was measured using flow cytometry (Attune NxT). Data was expressed as a percentage of the maximum binding (i.e., no competitor) and errors were determined as a result of three independent experiments performed in duplicate (Figure 5 ).
Cell Culture and Transfection: Constructs were either transiently or stably expressed in native Human Embryonic Kidney 293 (HEK293) cells and maintained in DMEM containing 10% FCS. Transfections were performed using PEI at a ratio of DNA:PEI of 1:4 for all studies. […]
Competition Binding: Competition binding was performed using a fluorescently labelling ligand using an assay analogous to the classical radiolabelled method.[1] Briefly, human embryonic kidney 293 (HEK293) cells stably expressing human Formyl […]
and incubated for 90 min on ice in the dark to allow equilibrium binding. Subsequently, mean fluorescence was measured by flow cytometry using the Attune NxT. Data was expressed as a percentage of maximum binding (i.e. no competitor) and analysed via nonlinear regression one site model of equilibrium. IC50 values were determined using GraphPad PRISM software.

FPR2 [2] = molecular target: T1, FPR2; assay: BRET analysis of mini-Gsi recruitment; format: cell-based; design: expressed in transfected cells; host or cells: HEK293, transient transfection; conditions: HEK293, FPR2-Rluc8 + mGsi-Venus, 37 °C
Experimental: (§1) Since these modifications of WKYMVm altered the relative affinity of the compounds to bind to FPR2, a further series of bioluminescence resonance energy transfer (BRET) assays were conducted to determine if there was any change in efficacy, specifically the ability to recruit molecular effectors such as G‐protein or β‐arrestin.^[ [28], [29] ^] Briefly, HEK293 cells were transiently transfected with FPR2‐Rluc8 (donor) in combination with and either mGsi‐Venus or β‐arrestin 2‐YFP (acceptors) and replated after 24 h into white opaque 96‐well plates. Cells were assayed 24 h later at 37 °C, in HEPES‐buffered saline solution (HBSS) with coelenterazine H (5 μM). Cells were then stimulated with increasing concentrations of WKYMVm or analogs. Luminescence and fluorescence values were measured at 460/30 nm (FPR2) and […] (mini‐Gsi or β‐arrestin protein), respectively, and the acceptor: donor ratio was determined, normalized by subtraction of the ratio observed in untreated cells (Figure 7 ). […]
(§2) BRET analysis of β-Arrestin and mini-Gsi recruitment: HEK293 cells were grown on 6 well plates until 90-95% confluency was reached. […] Cells were then stimulated with increasing concentrations of WKYMVm and analysed using ClarioStar Plus plate reader (BMG Labtech) at 10 minutes post agonist addition. […]

FPR2 [3] = molecular target: T2, FPR2 (Homo sapiens, UniProt P25090); assay: BRET analysis of β-arrestin 2 recruitment; format: cell-based; conditions: HEK293, FPR2-Rluc8 + β-arrestin 2-YFP, 37 °C
T2 construct: expressed in transfected cells; host or cells: HEK293, transient transfection
Experimental: as §1, §2
T2 sequence (P32121 whole entry partner, one chain of several): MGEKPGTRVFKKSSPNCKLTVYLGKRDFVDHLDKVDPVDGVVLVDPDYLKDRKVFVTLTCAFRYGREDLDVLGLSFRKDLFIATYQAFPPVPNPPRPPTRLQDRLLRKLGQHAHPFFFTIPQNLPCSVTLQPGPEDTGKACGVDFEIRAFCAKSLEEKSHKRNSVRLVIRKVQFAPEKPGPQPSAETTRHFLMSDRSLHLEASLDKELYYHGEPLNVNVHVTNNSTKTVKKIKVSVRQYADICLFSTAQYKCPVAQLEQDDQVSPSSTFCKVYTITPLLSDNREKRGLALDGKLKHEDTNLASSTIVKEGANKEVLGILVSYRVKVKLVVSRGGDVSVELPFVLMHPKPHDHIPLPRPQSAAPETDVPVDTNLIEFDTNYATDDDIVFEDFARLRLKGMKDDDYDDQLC

T. brucei [4] = test system: T. brucei; design: method as in PMID 34927802; conditions: previously reported; cited from earlier work
Log P assessment (HPLC) = format: physicochemical
Source text: (§3) Accordingly N‐Boc amino acid esters 20a–d were hydrolyzed to their free carboxylic acids 25a–d and then progressed in each case to the corresponding Weinreb–Nahm amides^[ [33] ^] 26a–d. N‐Boc deprotection followed by coupling to N‐Boc‐tryptophan generated dipeptides 27a–d as the required precursors for cyclization. The intramolecular Pictet–Spengler condensations, followed a previous protocol^[ [19] ^] and 4‐monofluoro 28a, 3,5‐difluoro‐ 28b, and 2,3,4,5,6‐pentafluoro‐ 28d keto‐piperazines could be prepared following this method. It is noteworthy that the pentafluoro‐ analog was accompanied by what appeared to be a high level of defluorinated side products, however 28d was conveniently purified by HPLC rather than column chromatography. […] Thus, 4‐monofluoro‐ 28a, 3,5‐difluoro‐ 28b, and 2,3,4,5,6‐pentafluoro‐ 28d cyclohexyl‐amino acid tryptophan diketopiperazines were prepared and explored in antitrypanosomal assays. Given the importance of molecular lipophilicity in the context of medicinal chemistry, a Log P assessment (HPLC) was made of the diketopiperazines products 28a, 28b, and 28d as illustrated in Table 1 . As anticipated, there is an increase in polarity (LogP reduction) as the number of fluorines increases. We also know from previous work[[6b]] that the Ph ring is more polar than cyclohexane but less polar than the progressively fluorinated cyclohexane rings. The keto‐piperazines 28a, 28b, and 28d were assayed^[ [20] ^] against growing cells of T. brucei and T. cruzi, as well as the human cell line, HeLa and the data is presented in Table 1.

T. brucei [5] = assay: Trypanocidal activity against growing cells; format: cell-based, Trypanosoma brucei; conditions: for EC50: Trypanosoma brucei; for trypanocidal activity against T. brucei: comparison within series and with 29
Source text: as §3
Bioactivities assays of Janus face Tryptophan
Parasites were grown in different medium (e.g. T. brucei was grown in HMI-11 medium) with 10% heat-inactivated foetal bovine serum. parasites were counted using CASY TT Cell Counter. Fluorescence was recorded using a FLx 800 plate reader (BioTek) with an excitation wavelength 530–535 nm and emission wavelength of 590–610 nm using Gen5 Reader Control 2.0 Software (BioTek). EC50 values were determined using a 4-parameter non-linear logistic regression equation using GraFit 5.0 (Erithacus Software). SD values were calculated based on curve fitting to n biological replicates performed in parallel.

HeLa = assay: Mammalian cell activity; format: cell-based; conditions: Homo sapiens
Experimental: Bioactivities assays of Janus face Tryptophan […]
Fluorescence was recorded using a FLx
800 plate reader (BioTek) with an excitation wavelength 530–535 nm and emission wavelength of 590–610 nm using Gen5 Reader Control 2.0 Software (BioTek). EC50 values were determined using a 4-parameter non-linear logistic regression equation using GraFit 5.0 (Erithacus Software). SD values were calculated based on curve fitting to n biological replicates performed in parallel.

[6] = design: method as in PMID 29732086; conditions: ref 6a; cited from earlier work
[7] = molecular target: T3, formyl-peptide receptor type 2 (FPR2), on HEK293 cells (human, UniProt P25090 1-351); assay: FACS; competition with K(5/6-FAM)-WKYMVm; printed as Log IC50 -7.24
T3 chain: T1 sequence (P25090 1-351)

[8] = molecular target: T3, formyl-peptide receptor type 2 (FPR2), …; assay: FACS; competition with K(5/6-FAM)-WKYMVm; printed as Log IC50 -5.33
[9] = molecular target: T3, formyl-peptide receptor type 2 (FPR2), …; assay: FACS; competition with K(5/6-FAM)-WKYMVm; printed as Log IC50 -6.29
[10] = molecular target: T3, formyl-peptide receptor type 2 (FPR2), …; assay: FACS; competition with K(5/6-FAM)-WKYMVm; printed as Log IC50 -5.80

Molecule: CSCC[C@H](NC(=O)[C@H](C[C@@H]1C[C@H](F)C[C@H](F)C1)NC(=O)[C@H](CCCCN)NC(=O)[C@@H](N)Cc1c[nH]c2ccccc12)C(=O)N[C@H](C(=O)N[C@H](CCSC)C(N)=O)C(C)C [23b] (H-WK[X2]MV[dM]-NH2)
- IC50 (FPR2 [1]): ~0.1 µM

Molecule: CSCC[C@H](NC(=O)[C@H](Cc1c(F)c(F)c(F)c(F)c1F)NC(=O)[C@H](CCCCN)NC(=O)[C@@H](N)Cc1c[nH]c2ccccc12)C(=O)N[C@H](C(=O)N[C@H](CCSC)C(N)=O)C(C)C [compound 25] (H-WK[Phe(F5)]MV[dM]-NH2)
- IC50 (FPR2 [1]): ~1 µM

Molecule: CSCC[C@H](NC(=O)[C@H](C[C@H]1CC[C@@H](F)CC1)NC(=O)[C@H](CCCCN)NC(=O)[C@@H](N)Cc1c[nH]c2ccccc12)C(=O)N[C@H](C(=O)N[C@H](CCSC)C(N)=O)C(C)C [23a] (H-WK[X1]MV[dM]-NH2; N-terminus assumed)
- relative binding affinity (FPR2 [1]; comparison within the peptide series): highest affinity but significantly weaker than that of the WKYMVm 13
- efficacy of Gi (mini-Gsi) recruitment (FPR2 [2]): comparable efficacy
- efficacy of β-arrestin recruitment (FPR2 [3]): comparable efficacy

Molecule: CSCC[C@H](NC(=O)[C@H](Cc1ccc(F)cc1)NC(=O)[C@H](CCCCN)NC(=O)[C@@H](N)Cc1c[nH]c2ccccc12)C(=O)N[C@H](C(=O)N[C@H](CCSC)C(N)=O)C(C)C [compound 24] (H-WK[Phe(4-F)]MV[dM]-NH2)
- IC50 (FPR2 [1]): ~0.1 µM

Molecule: O=C1NC(Cc2ccccc2)C2NC1Cc1c2[nH]c2ccccc12 (stereo not shown) [compound 29]
- EC50 (T. brucei [4]): 52.1 ± 3.5 µM

Molecule: O=C1NC(CC2CC(F)CC(F)C2)C2NC1Cc1c2[nH]c2ccccc12 (stereo not shown) [28b]
- chromatographic logP (Log P assessment (HPLC)): 2.92
- EC50 (T. brucei [5]): 11.3 ± 0.73 µM

Molecule: CSCC[C@H](NC(=O)[C@H](Cc1ccc(O)cc1)NC(=O)[C@H](CCCCN)NC(=O)[C@@H](N)Cc1c[nH]c2ccccc12)C(=O)N[C@H](C(=O)N[C@H](CCSC)C(N)=O)C(C)C [compound 13, Trp‐Lys‐Tyr‐Met‐Val‐D‐Met‐NH2, reference compound]
- efficacy of Gi (mini-Gsi) recruitment (FPR2 [2]): most efficacious
- efficacy of β-arrestin recruitment (FPR2 [3]): most efficacious

Molecule: O=C1NC(CC2CCC(F)CC2)C2NC1Cc1c2[nH]c2ccccc12 (stereo not shown) [28a]
- chromatographic logP (Log P assessment (HPLC)): 3.02
- EC50 (HeLa): 105 ± 6.25 µM
- EC50 (T. brucei [5]): 10.7 ± 0.46 µM
- trypanocidal activity against T. brucei (T. brucei [5]): best compound

Molecule: O=C1NC(CC2C(F)C(F)C(F)C(F)C2F)C2NC1Cc1c2[nH]c2ccccc12 (stereo not shown) [28d]
- chromatographic logP (Log P assessment (HPLC)): 2.58
- EC50 (T. brucei [5]): 22 ± 2.12 µM
- trypanocidal activity against T. brucei (T. brucei [5]): least active compound

Molecule: CSCC[C@H](NC(=O)[C@H](C[C@@H]1[C@H](F)C[C@H](F)C[C@@H]1F)NC(=O)[C@H](CCCCN)NC(=O)[C@@H](N)Cc1c[nH]c2ccccc12)C(=O)N[C@H](C(=O)N[C@H](CCSC)C(N)=O)C(C)C [23c] (H-WK[X3]MV[dM]-NH2)
- IC50 (FPR2 [1]): ~1 µM

Molecule: O=CC(CC1CCNC1=O)NC(=O)C(CC1C(F)C(F)C(F)C(F)C1F)NC(=O)c1cc2ccccc2[nH]1 (stereo not shown) [compound 8]
- Log P [6]: 0.69

Molecule: COC(=O)C=CC(CC1CCNC1=O)NC(=O)C(CC1C(F)C(F)C(F)C(F)C1F)NC(=O)C=Cc1ccccc1 (stereo not shown) [compound 9]
- Log P [6]: 1.21

B1: W-peptide analog 24 (4-fluorophenylalanine in place of Tyr3 of WKYMVm) (peptide)
peptide: WK[Phe(4-F)]MV[dM]-NH2
modifications: N-terminus assumed
SMILES: CSCC[C@H](NC(=O)[C@H](Cc1ccc(F)cc1)NC(=O)[C@H](CCCCN)NC(=O)[C@@H](N)Cc1c[nH]c2ccccc12)C(=O)N[C@H](C(=O)N[C@H](CCSC)C(N)=O)C(C)C
notes: last residue D-methionine; also called 4-fluorophenyl-modified peptide 24; 4-fluorophenylalanine analog 24; source: synthetic peptide (microwave-assisted SPPS, preparative HPLC)
- IC50 [7]: 0.0575 µM

B2: W-peptide analog 23d (all-cis pentafluorocyclohexylalanine in place of Tyr3 of WKYMVm) (peptide)
chain: WK[all‑cis pentafluorocyclohexylalanine]MV[dM]-NH2
- IC50 [8]: 4.68 µM

B3: W-peptide analog 25 (pentafluoroaryl phenylalanine in place of Tyr3 of WKYMVm) (peptide)
peptide: WK[Phe(F5)]MV[dM]-NH2
modifications: N-terminus assumed
SMILES: CSCC[C@H](NC(=O)[C@H](Cc1c(F)c(F)c(F)c(F)c1F)NC(=O)[C@H](CCCCN)NC(=O)[C@@H](N)Cc1c[nH]c2ccccc12)C(=O)N[C@H](C(=O)N[C@H](CCSC)C(N)=O)C(C)C
notes: last residue D-methionine; also called pentafluoroaryl motif; source: synthetic peptide (microwave-assisted SPPS, preparative HPLC)
- IC50 [9]: 0.513 µM

B4: W-peptide analog 23c (all-cis trifluorocyclohexylalanine in place of Tyr3 of WKYMVm) (peptide)
chain: WK[all‑cis trifluorocyclohexylalanine]MV[dM]-NH2
- IC50 [10]: 1.58 µM
